# Where “and” joins values, the source holds several entries; their conditions need not be identical. Identical values can stand only once.
# What was measured:
# [1] = test system: intestinal phosphate absorption; assay: Phosphate absorption in rats: 33P in plasma (15 min) and recovered in gastrointestinal tract (4 h), single agents and combination; type: in vivo; conditions: 0.4 mg/kg LY3304000, 10 mg/kg LY3358966 or both
# Procedure: We also evaluated the effect of LY3304000 and LY3358966 in combination on phosphate absorption in rats by measuring radioactive phosphate recovered in either plasma or the gastrointestinal (GI) tract. In this combination study, two vehicles were used. One is 1% HEC vehicle for making LY3304000 dosing solution, another is 0.46% PVP-VA vehicle contained in LY3358966 SDD. To make the LY3358966 dosing solution, an appropriate amount of LY3358966-SDD was weighed for a 10 mg/kg API dosing solution with 5 mL/kg dosing volume and dissolved in water. To make the LY3304000 dosing solution, an appropriate amount of LY3304000 was weighed for a 0.4 mg/kg dosing solution with 5 mL/kg dosing volume and dissolved in 1% HEC. The Radiolabeled Phosphate Dosing Solutions was made as described above. Following 4-hour fasting with access to water, male SD rats were orally dosed at 10 mL/kg with either two vehicles, an LY3358966 dosing solution and 1% HEC vehicle, an LY3304000 dosing solution and 0.46% PVP-VA vehicle, or an LY3304000 and LY3358966 dosing solutions, combined 1:1 by volume. Fifteen minutes later, Radiolabeled Phosphate Dosing Solution was orally dosed in a 2 mL volume. Fifteen minutes after the radiolabeled phosphate dose, blood was collected by retro orbital bleeding, and plasma was prepared. Radioactivity (dpm) in 20-μL plasma was measured by scintillation counting. The mole amount of phosphate uptake in the plasma was calculated as described above. Four hours post radioactive phosphate dose, the animals were sacrificed by asphyxiation with CO2 followed by cervical dislocation and then the stomach, small intestine, large intestine, and feces were collected and weighed. The tissues and feces were digested in 20 mL or 10 mL of 1 N NaOH, respectively, overnight at 37°C. A 100 μL sample of the homogenates were dispensed into scintillation vials and mixed with 10 mL of Optiphase Supermax scintillation fluid (PerkinElmer), and radioactivity (dpm) was measured by scintillation counting. Very little radioactivity was detected in the feces at 4 hours post radioactive phosphate dose. The percentage of radiolabeled phosphate recovered in the gastrointestinal tissue was defined as radioactivity (dpm) recovered in each fraction compared to the amount of radioactivity (dpm) administered. The mole amount of phosphate uptake into plasma in vehicle and LY3358966 and LY3304000 alone groups were compared to the LY3358966 and LY3304000 combination group using One-way ANOVA with Dunnett’s multiple comparisons. Percent recovery of ^33P phosphate in the rat gastrointestinal tract was analyzed by two-way analysis of variance (ANOVA) in JMP 12.1 to test for additivity of the effects of LY3304000 and LY3358966 on inhibiting phosphate absorption.
# [2] = test system: acute phosphate uptake into plasma; set-up: method as in PMID 35194979; conditions: rats; cited from earlier work
# [3] = test system: acute phosphate uptake into plasma; assay: Acute phosphate uptake in rats, LY3304000 with fixed 1.2 mg/kg LY3358966; type: in vivo; conditions: 1.2 mg/kg LY3358966 alone
# Procedure: NHE3 inhibitor LY3304000 and NPT2b inhibitor LY3358966 SDD were used in combination to assess their effect on phosphate absorption in rats. To make the LY3358966 dosing solution, an appropriate amount of LY3358966 SDD was weighed for a 1.2 mg/kg API dosing solution with 10 mL/kg dosing volume and dissolved in water. To make the LY3304000 dosing solution, an appropriate amount of LY3304000 was weighed for a 10 mg/kg dose with 10 mL/kg dosing volume and dissolved in 1% HEC vehicle. The subsequent dosing solutions for 3, 1, 0.3, 0.1, 0.03, 0.01, 0.003, and 0.001 mg/kg LY3304000 were prepared by serial dilutions with 1% HEC. Following 12-hour fasting, male SD rats were orally dosed at 10 mL/kg with 1% HEC vehicle, 1.2 mg/kg LY3358966 or increasing doses of LY3304000 with a fixed, 1.2 mg/kg dose of LY3358966. In the vehicle group, the animals were dosed first with 1% HEC immediately followed by water. In the LY3358966 alone group, the animals were first dosed with 1% HEC immediately followed by LY3358966. In the combination groups, the animals were dosed first with LY3304000 immediately followed by LY3358966. Fifteen minutes later, 2 mL Radiolabeled Phosphate Dosing Solution was orally dosed. Fifteen minutes later, blood was collected by cardiac stick, and plasma was prepared. Radioactivity (dpm) in 50-μL plasma was measured by scintillation counting. To measure the total radioactivity dosed to each rat, the radioactivity in two 10-μL samples of the Radiolabeled Phosphate Dosing Solutions was measured by scintillation counting. The mole amount of phosphate uptake was calculated as described above to determine acute phosphate uptake.
# [4] = test system: acute phosphate uptake into plasma; set-up: method as in PMID 35194979; conditions: mice; cited from earlier work
# phosphate absorption = test system: phosphate absorption; set-up: method as in PMID 30158152; conditions: cited from earlier work
# [5] = test system: acute phosphate uptake into plasma; set-up: method as in PMID 34978760; conditions: cited from earlier work
Compound,"phosphate uptake into plasma ([1]; 15 min post 33P phosphate, vehicle 166, mean ± SEM, n=8) [nmol]","inhibition of phosphate uptake into plasma ([1]; 15 min post 33P phosphate, versus vehicle) [%]","percentage of radiolabeled phosphate recovered, Feces ([1]; 4 h) [%]","percentage of radiolabeled phosphate recovered, Large Intestine ([1]; 4 h)","percentage of radiolabeled phosphate recovered, Small Intestine ([1]; 4 h)","percentage of radiolabeled phosphate recovered, Stomach ([1]; 4 h)","percentage of 33P recovered in GI tract, total ([1]; 4 h post 33P phosphate, stomach, small intestine, large intestine and feces, vehicle 25%)",inhibition of acute phosphate uptake [2],"phosphate uptake, % of the vehicle control [3] [%]",phosphate uptake into plasma ([3]; vehicle 710 nmoles) [nmol],decrease of acute uptake of radiolabeled phosphate into plasma [4],effect on phosphate absorption (phosphate absorption),effect on plasma 33P-phosphate in NHE3 knockout mice ([5]; 60 minutes after dosing 33P-phosphate),"33P-phosphate levels in plasma, lower than vehicle ([5]; mice, 5 minutes post phosphate dose)","33P-phosphate levels in plasma, elevated versus vehicle ([5]; mice, 60 min post phosphate dose)"
CC1(C)CN(C(=O)NCCCCO)CCN1Cc1cccc(C(=O)Nc2sc3c(c2C(=O)Nc2cc(F)c(CCc4ccc(C(=O)O)cc4)c(F)c2)CCCC3)c1 [LY3358966],108,35,<0.1,18.43 +/- 2.03%,8.98 +/- 0.48%,4.86 +/- 1.13%,32 ± 1% and 32% and 32.27 +/- 1.38%,20–30%,71,504,over 70%,,,,
CN1Cc2c(Cl)cc(Cl)cc2[C@H](c2cccc(S(=O)(=O)NCCOCCOCCNC(=O)NCCCCNC(=O)NCCOCCOCCNS(=O)(=O)c3cccc([C@@H]4CN(C)Cc5c(Cl)cc(Cl)cc54)c3)c2)C1 [tenapanor],,,,,,,,,,,,little effect,no effect,about 67%,about 50%
